Results taken from the supplement of paper PMC11451515.

Tested on: NOMO1
Test: cell viability relative to DMSO control; higher = less cytotoxic
Settings: 48 h
Method in brief: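 Viability is expressed as a percentage of DMSO wells within each plate, and cell-free wells serve as background. Seeding densities in the 1536-well plates (5 μl) were 500 cells/well for NOMO1 or SEM leukemia cells and 1000 cells/well for P12-Ichikawa. Each line was adapted for at least four passages in each medium. Library compounds in DMSO were pin-dosed at 47 μM to 0.79 nM (11 points, threefold), and CellTiter-Glo One luminescence was read after 48 h at 37°C.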

[1] = HPLM + 10% dialyzed FBS, 0.000781 µM
[2] = HPLM + 10% dialyzed FBS, 0.00234 µM
[3] = HPLM + 10% dialyzed FBS, 0.00702 µM
[4] = HPLM + 10% dialyzed FBS, 0.0211 µM
[5] = HPLM + 10% dialyzed FBS, 0.0632 µM
[6] = HPLM + 10% dialyzed FBS, 0.19 µM
[7] = HPLM + 10% dialyzed FBS, 0.569 µM
[8] = HPLM + 10% dialyzed FBS, 1.71 µM
[9] = HPLM + 10% dialyzed FBS, 5.12 µM
[10] = HPLM + 10% dialyzed FBS, 15.4 µM
[11] = HPLM + 10% dialyzed FBS, 46.1 µM
[12] = RPMI 5 mM glucose + 10% FBS, 0.000781 µM
[13] = RPMI 5 mM glucose + 10% FBS, 0.00234 µM
[14] = RPMI 5 mM glucose + 10% FBS, 0.00702 µM
[15] = RPMI 5 mM glucose + 10% FBS, 0.0211 µM
[16] = RPMI 5 mM glucose + 10% FBS, 0.0632 µM
[17] = RPMI 5 mM glucose + 10% FBS, 0.19 µM
[18] = RPMI 5 mM glucose + 10% FBS, 0.569 µM
[19] = RPMI 5 mM glucose + 10% FBS, 1.71 µM
[20] = RPMI 5 mM glucose + 10% FBS, 5.12 µM
[21] = RPMI 5 mM glucose + 10% FBS, 15.4 µM
[22] = RPMI 5 mM glucose + 10% FBS, 46.1 µM
[23] = RPMI 5 mM glucose + 10% dialyzed FBS, 0.000781 µM
[24] = RPMI 5 mM glucose + 10% dialyzed FBS, 0.00234 µM
[25] = RPMI 5 mM glucose + 10% dialyzed FBS, 0.00702 µM
[26] = RPMI 5 mM glucose + 10% dialyzed FBS, 0.0211 µM
[27] = RPMI 5 mM glucose + 10% dialyzed FBS, 0.0632 µM
[28] = RPMI 5 mM glucose + 10% dialyzed FBS, 0.19 µM
[29] = RPMI 5 mM glucose + 10% dialyzed FBS, 0.569 µM
[30] = RPMI 5 mM glucose + 10% dialyzed FBS, 1.71 µM
[31] = RPMI 5 mM glucose + 10% dialyzed FBS, 5.12 µM
[32] = RPMI 5 mM glucose + 10% dialyzed FBS, 15.4 µM
[33] = RPMI 5 mM glucose + 10% dialyzed FBS, 46.1 µM

| SMILES | cell viability [1] [%] | cell viability [2] [%] | cell viability [3] [%] | cell viability [4] [%] | cell viability [5] [%] | cell viability [6] [%] | cell viability [7] [%] | cell viability [8] [%] | cell viability [9] [%] | cell viability [10] [%] | cell viability [11] [%] | cell viability [12] [%] | cell viability [13] [%] | cell viability [14] [%] | cell viability [15] [%] | cell viability [16] [%] | cell viability [17] [%] | cell viability [18] [%] | cell viability [19] [%] | cell viability [20] [%] | cell viability [21] [%] | cell viability [22] [%] | cell viability [23] [%] | cell viability [24] [%] | cell viability [25] [%] | cell viability [26] [%] | cell viability [27] [%] | cell viability [28] [%] | cell viability [29] [%] | cell viability [30] [%] | cell viability [31] [%] | cell viability [32] [%] | cell viability [33] [%] |
| --- | --- | --- | --- | --- | --- | --- | --- | --- | --- | --- | --- | --- | --- | --- | --- | --- | --- | --- | --- | --- | --- | --- | --- | --- | --- | --- | --- | --- | --- | --- | --- | --- | --- |
| O=C1[C@H](Cc2ccc(O)cc2)N2C(=O)CCN(C(=O)NCc3ccccc3)[C@H]2CN1Cc1cccc2ccccc12 | 86.9 | 82.6 | 88.9 | 97.3 | 92.1 | 78.6 | 86.3 | 85 | 74.9 | 18.3 | 74 | 81.7 | 78.7 | 86.9 | 81 | 83.1 | 73.9 | 83.7 | 73.5 | 73.1 | 10.6 | 81.1 | 76.7 | 89.9 | 89.5 | 104 | 92.5 | 89.5 | 84.2 | 82.7 | 79.2 | 13.7 | 82.8 |
| COC(=O)C[C@](O)(CCCC(C)(C)O)C(=O)O[C@@H]1C(OC)=CC23CCCN2CCc2cc4c(cc2[C@H]13)OCO4 (some centres not stated) | 114 | 111 | 105 | 108 | 118 | 107 | 117 | 97.1 | 96 | 105 | 96.6 | 97.1 | 93.4 | 96.3 | 102 | 107 | 98.4 | 105 | 101 | 88.4 | 93.6 | 90.1 | 102 | 105 | 104 | 111 | 108 | 109 | 101 | 100 | 102 | 103 | 97.8 |
| CNCC(O)c1ccc(O)cc1 (configuration not stated) | 114 | 106 | 116 | 103 | 116 | 125 | 129 | 109 | 128 | 113 | 134 | 96.7 | 104 | 118 | 116 | 112 | 103 | 125 | 118 | 127 | 120 | 121 | 106 | 122 | 109 | 119 | 104 | 118 | 108 | 113 | 125 | 130 | 120 |
| CCN1CCN(CC1)CC(=O)NC2=CC=C(C3=C2C4=C(S3)C=CC=C4)C5=C6O\C(=C/C(=O)C6=CC=C5)N7CCOCC7 | 108 | 121 | 122 | 123 | 117 | 124 | 121 | 94.2 | 79.7 | 63.6 | 75.3 | 116 | 115 | 123 | 120 | 128 | 129 | 130 | 120 | 98 | 74.5 | 86.1 | 120 | 120 | 131 | 118 | 128 | 128 | 109 | 110 | 77.8 | 64.3 | 99.1 |
| CNc1nc(Nc2ccc(C(=O)N3CCOCC3)cc2OC)ncc1Cl | – | – | – | – | – | – | – | – | – | – | – | 103 | 121 | 119 | 109 | 106 | 114 | 111 | 112 | 99.8 | 106 | 90.9 | – | – | – | – | – | – | – | – | – | – | – |
| CCN(CC)CCOc1ccc(/C(=C(\Cl)c2ccccc2)c2ccccc2)cc1 | 124 | 123 | 130 | 136 | 150 | 134 | 130 | 134 | 109 | 122 | 102 | – | – | – | – | – | – | – | – | – | – | – | – | – | – | – | – | – | – | – | – | – | – |
| CCc1ccc(CCOc2ccc(CC3SC(=O)NC3=O)cc2)nc1 (configuration not stated) | 125 | 106 | 119 | 134 | 130 | 113 | 111 | 112 | 96.7 | 114 | 106 | 112 | 123 | 129 | 120 | 107 | 112 | 99 | 121 | 106 | 107 | 106 | – | – | – | – | – | – | – | – | – | – | – |
| CC(C)(O)CC[C@@H](O)[C@](C)(O)[C@H]1CC[C@@]2(O)C/3=C/C(=O)[C@@H]4C[C@@H](O)[C@@H](O)C[C@]4(C)[C@H]3CC[C@]12C | 111 | 98.6 | 110 | 86.8 | 84.6 | 98.5 | 98 | 103 | 87.4 | 94.9 | 81.7 | 87.9 | 97.3 | 86.9 | 83.8 | 93.2 | 91.9 | 91.2 | 88.6 | 80 | 84.2 | 83.1 | 108 | 110 | 108 | 95.2 | 105 | 91.6 | 105 | 90 | 86.2 | 88.1 | 94.4 |
| O=C1NC(=O)/C(=C/c2ccc3nccc(-c4ccncc4)c3c2)S1 | 129 | 96.8 | 124 | 97.8 | 89.6 | 85.4 | 55.6 | 50.8 | 33.8 | 26 | 14.7 | 115 | 99.6 | 107 | 113 | 101 | 92.9 | 84.1 | 66.7 | 36.8 | 29.1 | 16 | 107 | 115 | 92 | 97.3 | 88 | 63.2 | 61 | 55.9 | 34.7 | 27.2 | 13.6 |
